Data taken from patent publication US20200369728A1, “PEPTIDOMIMETIC MACROCYCLES AND USES THEREOF” (Aileron Therapeutics, Inc., priority 2015, published 2020).
Bridge positions count the residues as written; N and C are the ends. Square brackets hold non-standard residues; d marks the D form. Peptide text beside a SMILES is read from it. R8 = C=CCCCCCC[C@@](C)(N)C(=O)O; S5 = C=CCCC[C@](C)(N)C(=O)O; Aib = CC(C)(N)C(=O)O

Key:
RKO = assay: Cell viability assay (MTT), RKO; conditions: read-out: RKO EC50 (72 h)
Caspase 3 = Caspase 3 detection assay in SJSA1 cells; format: cell-based; conditions: SJSA1, 48 h, Caspase 3 activation over DMSO-treated cells
SJSA-1 cells = assay: Cell lysis by peptidomimetic macrocycles (LDH release); format: cell-based; conditions: SJSA-1, 1 h
How it was run: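 SJSA-1 cells plated the day before, switched to RPMI with 1% FBS, then exposed 1 h at 37 °C to macrocycle at final 50 μM to 6.25 μM in 0.5% DMSO. LDH released into the supernatant was measured by kit. Controls: 0.5% DMSO (non-lytic), 10 μM melittin and 1% Triton X-100 (lytic).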

CC(=O)N[C@@H](CC(C)C)C(=O)N[C@H](C(=O)N[C@@H](Cc1ccccc1)C(=O)N[C@]1(C)CCCCCCCCCCC[C@@](C)(C(=O)N[C@@H](C)C(=O)N[C@@H](C)C(=O)N[C@@H](C)C(=O)N[C@@H](C)C(=O)N[C@@H](C)C(=O)N[C@H](C)C(N)=O)NC(=O)[C@H](CC(C)C)NC(=O)[C@H](CCC(N)=O)NC(=O)[C@H](C)NC(=O)[C@H](Cc2c[nH]c3ccccc23)NC(=O)[C@H](Cc2ccc(O)cc2)NC(=O)[C@H](CCC(=O)O)NC1=O)[C@@H](C)O [compound 445]
EC50 (RKO): 5 to 15 µM

CCCC[C@H](NC(=O)[C@H](C)NC(=O)[C@H](C)NC(=O)[C@]1(C)CCCC=CCCCCCC[C@@](C)(NC(=O)[C@H](Cc2ccccc2)NC(=O)[C@@H](NC(=O)[C@H](CC(C)C)NC(=O)CN(C)C)[C@@H](C)O)C(=O)N[C@@H](C)C(=O)N[C@@H](Cc2ccc(O)cc2)C(=O)N[C@@H](Cc2c[nH]c3ccccc23)C(=O)N[C@@H](C)C(=O)N[C@@H](CCC(N)=O)C(=O)N[C@@H](CC(C)C)C(=O)N1)C(=O)N[C@@H](C)C(N)=O (single isomer, unassigned) [compound 442]
EC50 (RKO): < 5 µM

CCCC[C@H](NC(=O)[C@H](C)NC(=O)[C@H](C)NC(=O)[C@]1(C)CCCC=CCCCCCC[C@@](C)(NC(=O)[C@H](Cc2ccccc2)NC(=O)[C@@H](NC(=O)[C@H](CC(C)C)NC(C)=O)[C@@H](C)O)C(=O)N[C@@H](C)C(=O)N[C@@H](Cc2ccc(O)cc2)C(=O)N[C@@H](Cc2c[nH]c3ccccc23)C(=O)NC(C)(C)C(=O)N[C@@H](CCC(N)=O)C(=O)N[C@@H](CC(C)C)C(=O)N1)C(=O)N[C@@H](C)C(N)=O (single isomer, unassigned) [compound 390]
EC50 (RKO): < 5 µM

CC(=O)N[C@@H](CC(C)C)C(=O)N[C@H](C(=O)N[C@@H](Cc1ccccc1)C(=O)N[C@]1(C)CCCCCCC=CCCC[C@@](C)(C(=O)N[C@@H](CO)C(=O)N[C@@H](C)C(=O)NC(C)(C)C(N)=O)NC(=O)[C@H](CC(C)C)NC(=O)[C@H](CCC(N)=O)NC(=O)[C@H](C)NC(=O)[C@H](Cc2c[nH]c3ccccc23)NC(=O)[C@H](Cc2ccc(O)cc2)NC(=O)[C@H](C)NC1=O)[C@@H](C)O [compound 10] (Ac-LTF[R8]AYWAQL[S5]SA[Aib]-NH2; staple 4-11)
EC50 (RKO): 5 to 15 µM | caspase 0.3 μM (Caspase 3): 1 | caspase 3 μM (Caspase 3): 1 | caspase 10 μM (Caspase 3): 17 | caspase 30 μM (Caspase 3): 32

CC(C)C[C@H](NC(=O)CN(C)C)C(=O)N[C@H](C(=O)N[C@@H](Cc1ccccc1)C(=O)N[C@]1(C)CCCCCC/C=C/CCC[C@@](C)(C(=O)N[C@@H](C)C(=O)N[C@@H](C)C(=O)N[C@@H](C)C(=O)N[C@@H](C)C(=O)N[C@@H](C)C(=O)N[C@H](C)C(N)=O)NC(=O)[C@H](CC(C)C)NC(=O)[C@H](CCC(N)=O)NC(=O)[C@H](C)NC(=O)[C@H](Cc2c[nH]c3ccccc23)NC(=O)[C@H](Cc2ccc(O)cc2)NC(=O)[C@H](C)NC1=O)[C@@H](C)O [compound 437]
EC50 (RKO): < 5 µM

CC(=O)N[C@@H](CC(C)C)C(=O)N[C@H](C(=O)N[C@@H](Cc1ccccc1)C(=O)N[C@]1(C)CCCCCCC=CCCC[C@@](C)(C(=O)N[C@@H](C)C(=O)N[C@@H](Cc2c[nH]cn2)C(=O)N[C@@H](Cc2ccccc2)C(=O)N[C@@H](C)C(N)=O)NC(=O)[C@H](CC(C)C)NC(=O)[C@H](CCC(N)=O)NC(=O)[C@H](C)NC(=O)[C@H](Cc2c[nH]c3ccccc23)NC(=O)[C@H](Cc2ccc(O)cc2)NC(=O)[C@H](C)NC1=O)[C@@H](C)O [compound 50] (Ac-LTF[R8]AYWAQL[S5]AHFA-NH2; staple 4-11)
EC50 (RKO): < 5 µM | caspase 3 μM (Caspase 3): 8 | caspase 10 μM (Caspase 3): 29 | caspase 30 μM (Caspase 3): 29

CCCC[C@H](NC(=O)[C@H](C)NC(=O)[C@H](C)NC(=O)[C@]1(C)CCC/C=C/CCCCCC[C@@](C)(NC(=O)[C@H](Cc2ccccc2)NC(=O)[C@@H](NC(=O)[C@H](CC(C)C)NC(C)=O)[C@@H](C)O)C(=O)N[C@@H](C)C(=O)N[C@@H](Cc2ccc(O)cc2)C(=O)N[C@@](C)(Cc2c[nH]c3ccccc23)C(=O)N[C@@H](C)C(=O)N[C@@H](CCC(N)=O)C(=O)N[C@@H](CC(C)C)C(=O)N1)C(=O)N[C@@H](C)C(N)=O [compound 388]
EC50 (RKO): 15 to 30 µM

CCCC[C@H](NC(=O)[C@H](C)NC(=O)[C@H](C)NC(=O)[C@]1(C)CCCC=CCCCCCC[C@@](C)(NC(=O)[C@H](Cc2ccccc2)NC(=O)[C@@H](NC(=O)[C@H](CC(C)C)NC(C)=O)[C@@H](C)O)C(=O)N[C@@H](C)C(=O)N[C@@H](Cc2ccc(O)cc2)C(=O)N(C)[C@@H](Cc2c[nH]c3ccccc23)C(=O)N[C@@H](C)C(=O)N[C@@H](CCC(N)=O)C(=O)N[C@@H](CC(C)C)C(=O)N1)C(=O)N[C@@H](C)C(N)=O (single isomer, unassigned) [compound 386]
EC50 (RKO): < 5 µM

CSCC[C@H](NC(=O)[C@H](C)NC(=O)[C@H](CO)NC(=O)[C@]1(C)CCCC=CCCCCCC[C@@](C)(NC(=O)[C@H](Cc2ccccc2)NC(=O)[C@@H](NC(=O)[C@H](CC(C)C)NC(C)=O)[C@@H](C)O)C(=O)N[C@@H](C)C(=O)N[C@@H](Cc2ccc(O)cc2)C(=O)N[C@@H](Cc2c[nH]c3ccccc23)C(=O)N[C@@H](C)C(=O)N[C@@H](CCC(N)=O)C(=O)N[C@@H](CC(C)C)C(=O)N1)C(N)=O [compound 5] (Ac-LTF[R8]AYWAQL[S5]SAM-NH2; staple 4-11)
EC50 (RKO): < 5 µM

CC[C@H](C)[C@H](NC(=O)[C@H](C)NC(=O)[C@H](C)NC(=O)[C@]1(C)CCCC=CCCCCCC[C@@](C)(NC(=O)[C@H](Cc2ccccc2)NC(=O)[C@@H](NC(=O)[C@H](CC(C)C)NC(=O)CN(C)C)[C@@H](C)O)C(=O)N[C@@H](CCC(=O)O)C(=O)N[C@@H](Cc2ccc(C(=O)O)cc2)C(=O)N[C@@H](Cc2c[nH]c3ccccc23)C(=O)N[C@@H](C)C(=O)N[C@@H](CCC(N)=O)C(=O)N[C@@H](CC2CCC2)C(=O)N1)C(=O)N[C@H](C)C(N)=O (single isomer, unassigned) [compound 440]
EC50 (RKO): 15 to 30 µM

CCCC[C@H](NC(=O)[C@H](C)NC(=O)[C@H](C)NC(=O)[C@]1(C)CCCCCCCCCCC[C@@](C)(NC(=O)[C@H](Cc2ccccc2)NC(=O)[C@@H](NC(=O)[C@H](CC(C)C)NC(C)=O)[C@@H](C)O)C(=O)N[C@@H](C)C(=O)N[C@@H](Cc2ccc(O)cc2)C(=O)N[C@@H](Cc2c[nH]c3ccccc23)C(=O)N[C@@H](C)C(=O)N[C@@H](CCC(N)=O)C(=O)N[C@@H](CC(C)C)C(=O)N1)C(=O)N[C@@H](C)C(N)=O [compound 444]
EC50 (RKO): < 5 µM

CC(=O)N[C@@H](CC(C)C)C(=O)N[C@H](C(=O)N[C@@H](Cc1ccccc1)C(=O)N[C@]1(C)CCCCCCC=CCCC[C@@](C)(C(=O)N[C@@H](C)C(=O)N[C@H](C(=O)NCC(N)=O)C(C)C)NC(=O)[C@H](CC(C)C)NC(=O)[C@H](CCC(N)=O)NC(=O)[C@H](C)NC(=O)[C@H](Cc2c[nH]c3ccccc23)NC(=O)[C@H](Cc2ccc(O)cc2)NC(=O)[C@H](C)NC1=O)[C@@H](C)O (single isomer, unassigned) [compound 109]
EC50 (RKO): < 5 µM | caspase 3 μM (Caspase 3): 4 | caspase 10 μM (Caspase 3): 16 | caspase 30 μM (Caspase 3): 25

CC(=O)N[C@@H](C)C(=O)N[C@@H](C)C(=O)N[C@@H](CC(C)C)C(=O)N[C@H](C(=O)N[C@@H](Cc1ccccc1)C(=O)N[C@]1(C)CCCCCCC=CCCC[C@@](C)(C(=O)N[C@@H](CO)C(=O)N[C@@H](C)C(=O)N[C@@H](C)C(=O)N[C@@H](C)C(=O)N[C@H](C)C(N)=O)NC(=O)[C@H](CC2CCC2)NC(=O)[C@H](CCC(N)=O)NC(=O)[C@H](C)NC(=O)[C@H](Cc2c[nH]c3ccccc23)NC(=O)[C@H](Cc2ccc(O)cc2)NC(=O)[C@H](CCC(=O)O)NC1=O)[C@@H](C)O (single isomer, unassigned) [compound 358]
EC50 (RKO): 15 to 30 µM | caspase 0.3 μM (Caspase 3): 1 | caspase 1 μM (Caspase 3; 1 μM): 2 | caspase 3 μM (Caspase 3): 3 | caspase 10 μM (Caspase 3): 6 | caspase 30 μM (Caspase 3): 24

CC(C)C[C@H](NC(=O)CN(C)C)C(=O)N[C@H](C(=O)N[C@@H](Cc1ccccc1)C(=O)N[C@]1(C)CCCCCCC=CCCC[C@@](C)(C(=O)N[C@@H](C)C(=O)N[C@@H](C)C(=O)N[C@@H](C)C(=O)N[C@@H](C)C(=O)N[C@@H](C)C(=O)N[C@H](C)C(N)=O)NC(=O)[C@H](CC(C)C)NC(=O)[C@H](CCC(N)=O)NC(=O)[C@H](C)NC(=O)[C@H](Cc2c[nH]c3ccccc23)NC(=O)[C@H](Cc2ccc(O)cc2)NC(=O)[C@H](C)NC1=O)[C@@H](C)O (single isomer, unassigned) [compound 436]
EC50 (RKO): < 5 µM

CC(C)C[C@H](NC(=O)CN(C)C)C(=O)N[C@H](C(=O)N[C@@H](Cc1ccccc1)C(=O)N[C@]1(C)CCCCCCC=CCCC[C@@](C)(C(=O)N[C@@H](CO)C(=O)N[C@@H](C)C(=O)N[C@@H](C)C(N)=O)NC(=O)[C@H](CC2CCC2)NC(=O)[C@H](CCC(N)=O)NC(=O)[C@H](C)NC(=O)[C@H](Cc2c[nH]c3ccccc23)NC(=O)[C@H](Cc2ccc(O)cc2)NC(=O)[C@H](CCC(=O)O)NC1=O)[C@@H](C)O [compound 435]
EC50 (RKO): 15 to 30 µM

CC(=O)N[C@@H](CC(C)C)C(=O)N[C@H](C(=O)N[C@@H](Cc1ccccc1)C(=O)N[C@]1(C)CCCCCCC=CCCC[C@@](C)(C(=O)N[C@@H](CO)C(=O)NC(C)(C)C(=O)N[C@@H](C)C(=O)N[C@@H](C)C(N)=O)NC(=O)[C@H](CC(C)C)NC(=O)[C@H](CCC(N)=O)NC(=O)[C@H](C)NC(=O)[C@H](Cc2c[nH]c3ccccc23)NC(=O)[C@H](Cc2ccc(O)cc2)NC(=O)[C@H](C)NC1=O)[C@@H](C)O (single isomer, unassigned) [compound 26]
6.25 μM % Lysed cells (1 h LDH) (SJSA-1 cells; 6.25 μM): 2% | 25 μM % Lysed cells (1 h LDH) (SJSA-1 cells; 25 μM): −1% | 50 μM % Lysed cells (1 h LDH) (SJSA-1 cells; 50 μM): 0% | caspase 0.3 μM (Caspase 3): 1 | caspase 3 μM (Caspase 3): 1 | caspase 10 μM (Caspase 3): 3 | caspase 30 μM (Caspase 3): 14
